Measured values taken from US20020193283A1, “Inhibitors of prenyl-protein transferase” (priority 2000, published 2002).

Test: the assays disclosed below (unspecified, Examples 10-17)
Conditions: assays not specified

## Cc1ncc(CN2CCN(C(=O)OC(C)(C)C)CC2)n1Cc1ccc(C#N)c(Oc2cccc(OCCO)c2)c1 [Example 1 Step G, 1-(tert-butoxycarbonyl)-4-[1-(3-((3-(2-hydroxyethoxy)phenyl)oxy)-4-cyanobenzyl)-2-methyl-5-imidazolylmethyl]piperazine]
  activity in the assays disclosed below: active
